Test results from patent US10251892B2, “Bicyclic heterocycles as FGFR4 inhibitors” (Incyte Corporation, priority 2015, dated 2019).

Target: FGFR3 enzyme (Homo sapiens (Human), UniProt P22607)
Assay: FGFR Enzymatic Assay (peptide phosphorylation, FRET), FGFR3
Assay type: biochemical
Conditions: IC50 ratio showing FGFR3 selectivity; pre-incubated for 4 hours
Method: The inhibitor potency of the exemplified compounds was measured in an enzyme assay that measures peptide phosphorylation using FRET measurements to detect product formation. Inhibitors were serially diluted in DMSO and a volume of 0.5 μL was transferred to the wells of a 384-well plate.
GraphPad prism3 was used to analyze the data.

Sequence of FGFR3 enzyme (P22607 23-806): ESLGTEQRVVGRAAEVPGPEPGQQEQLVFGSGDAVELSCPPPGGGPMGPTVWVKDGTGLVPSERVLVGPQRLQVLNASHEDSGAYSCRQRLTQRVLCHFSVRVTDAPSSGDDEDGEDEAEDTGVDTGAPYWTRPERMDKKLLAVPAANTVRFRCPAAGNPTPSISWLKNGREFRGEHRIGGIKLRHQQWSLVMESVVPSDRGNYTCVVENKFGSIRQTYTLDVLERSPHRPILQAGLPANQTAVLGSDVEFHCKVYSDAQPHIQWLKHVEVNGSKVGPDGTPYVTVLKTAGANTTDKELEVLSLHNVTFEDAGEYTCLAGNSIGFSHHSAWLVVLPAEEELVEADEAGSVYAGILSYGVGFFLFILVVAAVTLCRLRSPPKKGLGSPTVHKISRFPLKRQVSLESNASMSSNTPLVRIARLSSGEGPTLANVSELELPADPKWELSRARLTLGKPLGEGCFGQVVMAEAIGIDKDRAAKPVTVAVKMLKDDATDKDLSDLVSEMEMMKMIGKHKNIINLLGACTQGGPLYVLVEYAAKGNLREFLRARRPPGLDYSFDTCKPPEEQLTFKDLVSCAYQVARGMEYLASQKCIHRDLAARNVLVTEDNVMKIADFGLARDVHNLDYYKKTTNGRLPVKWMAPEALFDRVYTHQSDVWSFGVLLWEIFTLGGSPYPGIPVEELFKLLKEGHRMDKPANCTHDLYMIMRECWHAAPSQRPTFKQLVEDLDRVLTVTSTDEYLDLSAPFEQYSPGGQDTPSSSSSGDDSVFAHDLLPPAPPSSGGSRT

Row | SMILES | FGFR1/FGFR3 | FGFR4/FGFR3
1 | COc1cc(OC)c(F)c(N2Cc3cnc(-c4cn(C)nc4C)cc3N(C3CC3)C2=O)c1F [Example 83, 1-cyclopropyl-3-(2,6-difluoro-3,5-dimethoxyphenyl)-7-(1,3-dimethyl-1H-pyrazol-4-yl)-3,4-dihydropyrido[4,3-d]pyrimidin-2(1H)-one] | >5 | >5
2 | COc1cc(OC)c(F)c(N2Cc3cnc(-c4cn(C)nc4C)cc3N(Cc3cncnc3)C2=O)c1F [Example 84, 3-(2,6-difluoro-3,5-dimethoxyphenyl)-7-(1,3-dimethyl-1H-pyrazol-4-yl)-1-(pyrimidin-5-ylmethyl)-3,4-dihydropyrido[4,3-d]pyrimidin-2(1H)-one] | >5 | >5
3 | COc1cc(OC)c(F)c(N2Cc3cnc(-c4cn(C)nc4C)cc3N(Cc3cnccn3)C2=O)c1F [Example 85, 3-(2,6-difluoro-3,5-dimethoxyphenyl)-7-(1,3-dimethyl-1H-pyrazol-4-yl)-1-(pyrazin-2-ylmethyl)-3,4-dihydropyrido[4,3-d]pyrimidin-2(1H)-one] | >5 | >10
4 | COc1cc(OC)c(F)c(N2Cc3cnc(-c4cn(C)nc4C)cc3N(c3cccnc3)C2=O)c1F [Example 86, 3-(2,6-difluoro-3,5-dimethoxyphenyl)-7-(1,3-dimethyl-1H-pyrazol-4-yl)-1-(pyridin-3-yl)-3,4-dihydropyrido[4,3-d]pyrimidin-2(1H)-one] | >5 | >10
5 | COc1cc(OC)c(F)c(N2Cc3cnc(-c4cn(C)nc4C)cc3N(c3cncc(C)n3)C2=O)c1F [Example 87, 3-(2,6-difluoro-3,5-dimethoxyphenyl)-7-(1,3-dimethyl-1H-pyrazol-4-yl)-1-(6-methylpyrazin-2-yl)-3,4-dihydropyrido[4,3-d]pyrimidin-2(1H)-one] | >5 | >10
6 | COc1cc(OC)c(F)c(N2Cc3cnc(-c4cn(C)nc4C)cc3N(Cc3cccnn3)C2=O)c1F [Example 88, 3-(2,6-difluoro-3,5-dimethoxyphenyl)-7-(1,3-dimethyl-1H-pyrazol-4-yl)-1-(pyridazin-3-ylmethyl)-3,4-dihydropyrido[4,3-d]pyrimidin-2(1H)-one] | >5 | >10
7 | COc1cc(OC)c(F)c(N2Cc3cnc(-c4cn(C)nc4C)cc3N(c3cccc(-c4cnnn4C)c3)C2=O)c1F [Example 89, 3-(2,6-difluoro-3,5-dimethoxyphenyl)-7-(1,3-dimethyl-1H-pyrazol-4-yl)-1-(3-(1-methyl-1H-1,2,3-triazol-5-yl)phenyl)-3,4-dihydropyrido[4,3-d]pyrimidin-2(1H)-one] | >5 | >10
8 | COc1cc(OC)c(F)c(N2Cc3cnc(-c4cn(C)nc4C)cc3N(C(C)C)C2=O)c1F [Example 90, 3-(2,6-difluoro-3,5-dimethoxyphenyl)-7-(1,3-dimethyl-1H-pyrazol-4-yl)-1-isopropyl-3,4-dihydropyrido[4,3-d]pyrimidin-2(1H)-one] | >5 | >5
9 | COc1cc(OC)c(F)c(N2Cc3cnc(-c4cn(C)nc4C)cc3N(C3(C#N)CC3)C2=O)c1F [Example 91, 1-(3-(2,6-difluoro-3,5-dimethoxyphenyl)-7-(1,3-dimethyl-1H-pyrazol-4-yl)-2-oxo-3,4-dihydropyrido[4,3-d]pyrimidin-1(2H)-yl)cyclopropanecarbonitrile] | >5 | >5
10 | COc1cc(OC)c(F)c(N2Cc3cnc(-c4cn(C)nc4C)cc3N(Cc3cc(C(C)C)on3)C2=O)c1F [Example 93, 3-(2,6-difluoro-3,5-dimethoxyphenyl)-7-(1,3-dimethyl-1H-pyrazol-4-yl)-1-((5-isopropylisoxazol-3-yl)methyl)-3,4-dihydropyrido[4,3-d]pyrimidin-2(1H)-one] | >5 | >5
11 | COc1cc(OC)c(F)c(N2Cc3cnc(-c4cn(C)nc4C)cc3N(Cc3ccccn3)C2=O)c1F [Example 94, 3-(2,6-difluoro-3,5-dimethoxyphenyl)-7-(1,3-dimethyl-1H-pyrazol-4-yl)-1-(pyridin-2-ylmethyl)-3,4-dihydropyrido[4,3-d]pyrimidin-2(1H)-one] | >5 | >10
12 | COc1cc(OC)c(F)c(N2Cc3cnc(-c4cn(C)nc4C)cc3N(Cc3csc(C)n3)C2=O)c1F [Example 95, 3-(2,6-difluoro-3,5-dimethoxyphenyl)-7-(1,3-dimethyl-1H-pyrazol-4-yl)-1-((2-methylthiazol-4-yl)methyl)-3,4-dihydropyrido[4,3-d]pyrimidin-2(1H)-one] | >5 | >10
13 | COc1cc(OC)c(F)c(N2Cc3cnc(-c4cn(C)nc4C)cc3N(c3ccc(CC#N)cc3)C2=O)c1F [Example 97, 2-(4-(3-(2,6-difluoro-3,5-dimethoxyphenyl)-7-(1,3-dimethyl-1H-pyrazol-4-yl)-2-oxo-3,4-dihydropyrido[4,3-d]pyrimidin-1(2H)-yl)phenyl)acetonitrile] | >5 | >10
14 | COc1cc(OC)c(F)c(N2Cc3cnc(-c4cn(C)nc4C)cc3N(c3ccc(S(C)(=O)=O)cc3)C2=O)c1F [Example 98, 3-(2,6-difluoro-3,5-dimethoxyphenyl)-7-(1,3-dimethyl-1H-pyrazol-4-yl)-1-(4-(methylsulfonyl)phenyl)-3,4-dihydropyrido[4,3-d]pyrimidin-2(1H)-one] | >5 | >10
15 | COc1cc(OC)c(F)c(N2Cc3cnc(-c4cn(C)nc4C)cc3N(c3cccc(F)c3)C2=O)c1F [Example 99, 3-(2,6-difluoro-3,5-dimethoxyphenyl)-7-(1,3-dimethyl-1H-pyrazol-4-yl)-1-(3-fluorophenyl)-3,4-dihydropyrido[4,3-d]pyrimidin-2(1H)-one] | >5 | >5
16 | COc1cc(OC)c(F)c(N2Cc3cnc(-c4cn(C)nc4C)cc3N(c3ccn(C)n3)C2=O)c1F [Example 100, 3-(2,6-difluoro-3,5-dimethoxyphenyl)-7-(1,3-dimethyl-1H-pyrazol-4-yl)-1-(1-methyl-1H-pyrazol-3-yl)-3,4-dihydropyrido[4,3-d]pyrimidin-2(1H)-one] | >5 | >5
17 | COc1cc(OC)c(F)c(N2Cc3cnc(-c4cn(C)nc4C)cc3N(c3ccc(F)c(F)c3)C2=O)c1F [Example 102, 3-(2,6-difluoro-3,5-dimethoxyphenyl)-1-(3,4-difluorophenyl)-7-(1,3-dimethyl-1H-pyrazol-4-yl)-3,4-dihydropyrido[4,3-d]pyrimidin-2(1H)-one] | >3 | >10
18 | COc1cc(OC)c(F)c(N2Cc3cnc(-c4cn(C)nc4C)cc3N(c3cc(F)cc(F)c3)C2=O)c1F [Example 103, 3-(2,6-difluoro-3,5-dimethoxyphenyl)-1-(3,5-difluorophenyl)-7-(1,3-dimethyl-1H-pyrazol-4-yl)-3,4-dihydropyrido[4,3-d]pyrimidin-2(1H)-one] | >3 | >5
19 | COc1ccc(N2C(=O)N(c3c(F)c(OC)cc(OC)c3F)Cc3cnc(-c4cn(C)nc4C)cc32)cc1 [Example 104, 3-(2,6-difluoro-3,5-dimethoxyphenyl)-7-(1,3-dimethyl-1H-pyrazol-4-yl)-1-(4-methoxyphenyl)-3,4-dihydropyrido[4,3-d]pyrimidin-2(1H)-one] | >3 | >5
